Experimental data as given in paper PMC9856672, “SGC-CAMKK2-1: A Chemical Probe for CAMKK2” (Cells, 2023).

Legend:
EPHB6 = target: T1, EPHB6 (Homo sapiens, UniProt O15197); test: KINOMEscan 1 μM, EPHB6; assay type: binding; settings: 1000 nM; Entrez EPHB6; read-out: Percent Control
T1 construct: purchased Eurofins DiscoverX KINOMEscan
Excerpt: (§1) Supplement cells-12-00287-s001.zip/File S2. KinomeScan data for the CAMKK2 probe and negative control.xlsx, sheet "SGC-CAMKK2-1" | column: Percent Control

CAMK1G = target: T2, CAMK1G (Homo sapiens, UniProt Q96NX5); test: KINOMEscan 1 μM, CAMK1G; assay type: binding; settings: 1000 nM; Entrez CAMK1G; read-out: Percent Control
T2 construct: purchased Eurofins DiscoverX KINOMEscan
Excerpt: as §1

SGK2 = target: T3, SGK2 (Homo sapiens, UniProt Q9HBY8); test: KINOMEscan 1 μM, SGK2; assay type: binding; settings: 1000 nM; Entrez SGK2; read-out: Percent Control
T3 construct: purchased Eurofins DiscoverX KINOMEscan
Excerpt: as §1

CDC2L2 = target: T4, CDC2L2 (Homo sapiens, UniProt Q9UQ88); test: KINOMEscan 1 μM, CDC2L2; assay type: binding; settings: 1000 nM; Entrez CDC2L2; read-out: Percent Control
T4 construct: purchased Eurofins DiscoverX KINOMEscan
Excerpt: as §1

OSR1 = target: T5, OSR1 (Homo sapiens, UniProt O95747); test: KINOMEscan 1 μM, OSR1; assay type: binding; settings: 1000 nM; Entrez OXSR1; read-out: Percent Control
T5 construct: purchased Eurofins DiscoverX KINOMEscan
Excerpt: as §1

MEK3 = target: T6, MEK3 (Homo sapiens, UniProt P46734); test: KINOMEscan 1 μM, MEK3; assay type: binding; settings: 1000 nM; Entrez MAP2K3; read-out: Percent Control
T6 construct: purchased Eurofins DiscoverX KINOMEscan
Excerpt: as §1

AMPK-alpha1 = target: T7, AMPK-alpha1 (Homo sapiens, UniProt Q13131); test: KINOMEscan 1 μM, AMPK-alpha1; assay type: binding; settings: 1000 nM; Entrez PRKAA1; read-out: Percent Control
T7 construct: purchased Eurofins DiscoverX KINOMEscan
Excerpt: as §1

RET = target: T8, RET (Homo sapiens, UniProt P07949); test: KINOMEscan 1 μM, RET; assay type: binding; settings: 1000 nM; Entrez RET; read-out: Percent Control
T8 construct: purchased Eurofins DiscoverX KINOMEscan
Excerpt: as §1

LIMK1 = target: T9, LIMK1 (Homo sapiens, UniProt P53667); test: KINOMEscan 1 μM, LIMK1; assay type: binding; settings: 1000 nM; Entrez LIMK1; read-out: Percent Control
T9 construct: purchased Eurofins DiscoverX KINOMEscan
Excerpt: as §1

PKMYT1 = target: T10, PKMYT1 (Homo sapiens, UniProt Q99640); test: KINOMEscan 1 μM, PKMYT1; assay type: binding; settings: 1000 nM; Entrez PKMYT1; read-out: Percent Control
T10 construct: purchased Eurofins DiscoverX KINOMEscan
Excerpt: as §1

[1] = target: T11, ABL1(Q252H)-nonphosphorylated (Homo sapiens, UniProt P00519, Q252H); test: KINOMEscan 1 μM, ABL1(Q252H)-nonphosphorylated; assay type: binding; settings: 1000 nM; Entrez ABL1; read-out: Percent Control
T11 construct: purchased Eurofins DiscoverX KINOMEscan
Excerpt: as §1

ADCK3 = target: T12, ADCK3 (Homo sapiens, UniProt Q8NI60); test: KINOMEscan 1 μM, ADCK3; assay type: binding; settings: 1000 nM; Entrez CABC1; read-out: Percent Control
T12 construct: purchased Eurofins DiscoverX KINOMEscan
Excerpt: as §1

CLK4 = target: T13, CLK4 (Homo sapiens, UniProt Q9HAZ1); test: KINOMEscan 1 μM, CLK4; assay type: binding; settings: 1000 nM; Entrez CLK4; read-out: Percent Control
T13 construct: purchased Eurofins DiscoverX KINOMEscan
Excerpt: as §1

ERN1 = target: T14, ERN1 (Homo sapiens, UniProt O75460); test: KINOMEscan 1 μM, ERN1; assay type: binding; settings: 1000 nM; Entrez ERN1; read-out: Percent Control
T14 construct: purchased Eurofins DiscoverX KINOMEscan
Excerpt: as §1

LOK = target: T15, LOK (Homo sapiens, UniProt O94804); test: KINOMEscan 1 μM, LOK; assay type: binding; settings: 1000 nM; Entrez STK10; read-out: Percent Control
T15 construct: purchased Eurofins DiscoverX KINOMEscan
Excerpt: as §1

MAPKAPK2 = target: T16, MAPKAPK2 (Homo sapiens, UniProt P49137); test: KINOMEscan 1 μM, MAPKAPK2; assay type: binding; settings: 1000 nM; Entrez MAPKAPK2; read-out: Percent Control
T16 construct: purchased Eurofins DiscoverX KINOMEscan
Excerpt: as §1

MLK2 = target: T17, MLK2 (Homo sapiens, UniProt Q02779); test: KINOMEscan 1 μM, MLK2; assay type: binding; settings: 1000 nM; Entrez MAP3K10; read-out: Percent Control
T17 construct: purchased Eurofins DiscoverX KINOMEscan
Excerpt: as §1

PIK3CA(M1043I) = target: T18, PIK3CA(M1043I) (Homo sapiens, UniProt P42336, M1043I); test: DiscoverX KINOMEscan binding assay at 1 μM, PIK3CA(M1043I); settings: Compound Concentration 1000 nM, read-out: Percent Control
T18 construct: purchased Eurofins DiscoverX KINOMEscan
Excerpt: as §1

PKN2 = target: T19, PKN2 (Homo sapiens, UniProt Q16513); test: DiscoverX KINOMEscan binding assay at 1 μM, PKN2; settings: Compound Concentration 1000 nM, read-out: Percent Control
T19 construct: purchased Eurofins DiscoverX KINOMEscan
Excerpt: as §1

YES = target: T20, YES (Homo sapiens, UniProt P07947); test: DiscoverX KINOMEscan binding assay at 1 μM, YES; settings: YES (YES1); Compound Concentration 1000 nM; read-out: Percent Control
T20 construct: purchased Eurofins DiscoverX KINOMEscan
Excerpt: as §1

FGFR3(G697C) = target: T21, FGFR3(G697C) (Homo sapiens, UniProt P22607, G697C); test: KINOMEscan at 1 μM, FGFR3(G697C); assay type: binding; settings: 1000 nM, read-out: Percent Control
T21 construct: purchased Eurofins DiscoverX KINOMEscan
Excerpt: (§2) Supplement cells-12-00287-s001.zip/File S2. KinomeScan data for the CAMKK2 probe and negative control.xlsx, sheet "SGC-CAMKK2-1N" | column: Percent Control

[2] = target: T22, RSK2(Kin.Dom.2-C-terminal) (Homo sapiens, UniProt P51812); test: KINOMEscan at 1 μM, RSK2(Kin.Dom.2-C-terminal); assay type: binding; settings: 1000 nM, read-out: Percent Control
T22 construct: RSK2(Kin.Dom.2-C-terminal); purchased Eurofins DiscoverX KINOMEscan
Excerpt: as §2

FLT3(D835H) = target: T23, FLT3(D835H) (Homo sapiens, UniProt P36888, D835H); test: KINOMEscan at 1 μM, FLT3(D835H); assay type: binding; settings: 1000 nM, read-out: Percent Control
T23 construct: purchased Eurofins DiscoverX KINOMEscan
Excerpt: as §2

CDK2 = target: T24, CDK2 (Homo sapiens, UniProt P24941); test: KINOMEscan at 1 μM, CDK2; assay type: binding; settings: 1000 nM, read-out: Percent Control
T24 construct: purchased Eurofins DiscoverX KINOMEscan
Excerpt: as §2

MYLK4 = target: T25, MYLK4 (Homo sapiens, UniProt Q86YV6); test: KINOMEscan at 1 μM, MYLK4; assay type: binding; settings: 1000 nM, read-out: Percent Control
T25 construct: purchased Eurofins DiscoverX KINOMEscan
Excerpt: as §2

PYK2 = target: T26, PYK2 (Homo sapiens, UniProt Q14289); test: KINOMEscan at 1 μM, PYK2; assay type: binding; settings: 1000 nM, read-out: Percent Control
T26 construct: purchased Eurofins DiscoverX KINOMEscan
Excerpt: as §2

RET(M918T) = target: T27, RET(M918T) (Homo sapiens, UniProt P07949, M918T); test: KINOMEscan at 1 μM, RET(M918T); assay type: binding; settings: 1000 nM, read-out: Percent Control
T27 construct: purchased Eurofins DiscoverX KINOMEscan
Excerpt: as §2

CDKL5 = target: T28, CDKL5 (Homo sapiens, UniProt O76039); test: KINOMEscan at 1 μM, CDKL5; assay type: binding; settings: 1000 nM, read-out: Percent Control
T28 construct: purchased Eurofins DiscoverX KINOMEscan
Excerpt: as §2

CSNK1G2 = target: T29, CSNK1G2 (Homo sapiens, UniProt P78368); test: KINOMEscan at 1 μM, CSNK1G2; assay type: binding; settings: 1000 nM, read-out: Percent Control
T29 construct: purchased Eurofins DiscoverX KINOMEscan
Excerpt: as §2

HASPIN = target: T30, HASPIN (Homo sapiens, UniProt Q8TF76); test: KINOMEscan binding assay at 1 μM, HASPIN; settings: Compound Concentration 1000 nM; read-out: Percent Control
T30 construct: purchased Eurofins DiscoverX KINOMEscan
Excerpt: as §2

PFTK1 = target: T31, PFTK1 (Homo sapiens, UniProt O94921); test: KINOMEscan binding assay at 1 μM, PFTK1; settings: Compound Concentration 1000 nM; read-out: Percent Control
T31 construct: purchased Eurofins DiscoverX KINOMEscan
Excerpt: as §2

PIK3C2G = target: T32, PIK3C2G (Homo sapiens, UniProt O75747); test: KINOMEscan binding assay at 1 μM, PIK3C2G; settings: Compound Concentration 1000 nM; read-out: Percent Control
T32 construct: purchased Eurofins DiscoverX KINOMEscan
Excerpt: as §2

T19 sequence (Q16513 whole entry): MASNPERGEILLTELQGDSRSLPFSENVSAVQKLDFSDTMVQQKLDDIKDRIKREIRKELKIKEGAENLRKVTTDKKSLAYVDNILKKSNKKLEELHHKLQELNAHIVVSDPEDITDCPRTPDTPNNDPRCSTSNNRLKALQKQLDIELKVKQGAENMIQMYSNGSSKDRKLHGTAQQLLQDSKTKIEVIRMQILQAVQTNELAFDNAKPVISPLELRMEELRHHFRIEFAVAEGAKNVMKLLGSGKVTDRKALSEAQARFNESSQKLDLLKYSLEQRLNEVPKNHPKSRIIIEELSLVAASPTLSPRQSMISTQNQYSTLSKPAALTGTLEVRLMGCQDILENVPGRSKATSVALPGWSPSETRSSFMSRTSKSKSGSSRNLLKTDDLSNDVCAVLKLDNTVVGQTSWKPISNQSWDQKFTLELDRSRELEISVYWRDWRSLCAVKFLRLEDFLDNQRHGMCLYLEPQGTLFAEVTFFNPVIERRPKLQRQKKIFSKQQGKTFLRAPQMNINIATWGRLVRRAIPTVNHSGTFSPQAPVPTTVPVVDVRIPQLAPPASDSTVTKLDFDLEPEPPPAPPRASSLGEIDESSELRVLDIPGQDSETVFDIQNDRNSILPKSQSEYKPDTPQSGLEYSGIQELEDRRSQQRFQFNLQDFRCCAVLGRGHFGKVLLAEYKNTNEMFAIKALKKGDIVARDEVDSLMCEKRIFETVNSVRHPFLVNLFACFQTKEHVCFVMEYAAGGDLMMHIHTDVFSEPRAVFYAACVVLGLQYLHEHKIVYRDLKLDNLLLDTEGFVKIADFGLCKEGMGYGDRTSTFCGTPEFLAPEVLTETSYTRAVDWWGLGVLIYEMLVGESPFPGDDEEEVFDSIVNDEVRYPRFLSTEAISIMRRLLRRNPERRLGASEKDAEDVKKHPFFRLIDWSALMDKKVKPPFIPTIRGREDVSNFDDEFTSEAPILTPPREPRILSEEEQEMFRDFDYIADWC
T9 sequence (P53667 whole entry): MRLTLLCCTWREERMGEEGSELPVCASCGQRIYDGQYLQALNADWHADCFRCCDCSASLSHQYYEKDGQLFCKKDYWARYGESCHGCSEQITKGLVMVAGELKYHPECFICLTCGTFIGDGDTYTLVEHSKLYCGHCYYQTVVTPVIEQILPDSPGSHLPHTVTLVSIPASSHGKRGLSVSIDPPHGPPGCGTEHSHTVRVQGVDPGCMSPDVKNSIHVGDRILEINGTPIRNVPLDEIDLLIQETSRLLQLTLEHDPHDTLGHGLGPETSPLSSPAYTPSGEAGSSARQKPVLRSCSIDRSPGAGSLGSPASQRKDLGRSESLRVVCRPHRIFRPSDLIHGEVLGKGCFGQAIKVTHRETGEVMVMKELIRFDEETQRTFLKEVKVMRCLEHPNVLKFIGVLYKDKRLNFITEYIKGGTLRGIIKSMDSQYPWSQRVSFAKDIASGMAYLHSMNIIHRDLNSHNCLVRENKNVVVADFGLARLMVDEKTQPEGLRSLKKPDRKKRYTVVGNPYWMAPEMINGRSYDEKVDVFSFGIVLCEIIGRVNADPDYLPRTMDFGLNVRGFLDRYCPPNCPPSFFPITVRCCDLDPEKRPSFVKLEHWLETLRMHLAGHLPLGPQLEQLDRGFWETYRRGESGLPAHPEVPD
T4 sequence (Q9UQ88 whole entry): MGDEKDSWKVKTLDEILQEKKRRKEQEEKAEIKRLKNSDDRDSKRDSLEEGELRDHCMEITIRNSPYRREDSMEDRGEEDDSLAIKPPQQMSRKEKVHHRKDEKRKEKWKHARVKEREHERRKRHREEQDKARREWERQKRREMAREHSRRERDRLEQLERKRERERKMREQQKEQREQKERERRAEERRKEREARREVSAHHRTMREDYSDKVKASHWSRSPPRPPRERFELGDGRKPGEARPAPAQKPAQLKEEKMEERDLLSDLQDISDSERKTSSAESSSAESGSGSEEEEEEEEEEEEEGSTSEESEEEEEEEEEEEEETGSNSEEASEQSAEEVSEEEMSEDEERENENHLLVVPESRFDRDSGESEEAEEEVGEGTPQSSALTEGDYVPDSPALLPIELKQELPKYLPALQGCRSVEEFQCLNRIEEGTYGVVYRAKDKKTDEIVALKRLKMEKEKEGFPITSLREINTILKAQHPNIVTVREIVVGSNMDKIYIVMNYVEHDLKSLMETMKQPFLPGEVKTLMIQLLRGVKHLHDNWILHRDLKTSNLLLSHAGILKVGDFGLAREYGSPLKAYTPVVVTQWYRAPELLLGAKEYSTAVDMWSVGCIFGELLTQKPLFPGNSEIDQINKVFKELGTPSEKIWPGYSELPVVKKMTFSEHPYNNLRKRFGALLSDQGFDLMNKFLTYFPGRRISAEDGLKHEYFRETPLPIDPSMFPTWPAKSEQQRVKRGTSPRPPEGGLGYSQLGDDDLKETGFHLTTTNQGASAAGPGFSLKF
T21 sequence (P22607 23-806 G697C): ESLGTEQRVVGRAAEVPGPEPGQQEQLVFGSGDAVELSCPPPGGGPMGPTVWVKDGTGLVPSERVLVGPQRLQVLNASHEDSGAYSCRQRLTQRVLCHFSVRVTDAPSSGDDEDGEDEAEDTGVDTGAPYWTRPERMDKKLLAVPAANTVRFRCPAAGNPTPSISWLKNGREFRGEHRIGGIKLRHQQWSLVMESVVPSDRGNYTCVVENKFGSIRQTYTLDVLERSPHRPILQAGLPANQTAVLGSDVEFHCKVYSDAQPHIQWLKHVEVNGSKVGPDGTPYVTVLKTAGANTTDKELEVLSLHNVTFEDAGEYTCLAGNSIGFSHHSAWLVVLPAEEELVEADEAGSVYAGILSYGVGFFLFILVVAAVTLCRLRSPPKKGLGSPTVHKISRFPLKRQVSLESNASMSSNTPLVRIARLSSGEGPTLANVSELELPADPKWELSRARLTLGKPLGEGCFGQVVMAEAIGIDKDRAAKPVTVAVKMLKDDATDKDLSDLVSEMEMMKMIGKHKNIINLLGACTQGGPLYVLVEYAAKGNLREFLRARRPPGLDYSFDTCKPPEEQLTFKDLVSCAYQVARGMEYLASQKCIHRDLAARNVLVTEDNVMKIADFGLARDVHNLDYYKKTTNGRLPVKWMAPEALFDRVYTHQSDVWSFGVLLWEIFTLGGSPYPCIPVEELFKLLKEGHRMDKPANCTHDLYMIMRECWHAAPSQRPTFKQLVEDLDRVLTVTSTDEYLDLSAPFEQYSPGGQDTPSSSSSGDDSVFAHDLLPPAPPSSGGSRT
T31 sequence (O94921 whole entry): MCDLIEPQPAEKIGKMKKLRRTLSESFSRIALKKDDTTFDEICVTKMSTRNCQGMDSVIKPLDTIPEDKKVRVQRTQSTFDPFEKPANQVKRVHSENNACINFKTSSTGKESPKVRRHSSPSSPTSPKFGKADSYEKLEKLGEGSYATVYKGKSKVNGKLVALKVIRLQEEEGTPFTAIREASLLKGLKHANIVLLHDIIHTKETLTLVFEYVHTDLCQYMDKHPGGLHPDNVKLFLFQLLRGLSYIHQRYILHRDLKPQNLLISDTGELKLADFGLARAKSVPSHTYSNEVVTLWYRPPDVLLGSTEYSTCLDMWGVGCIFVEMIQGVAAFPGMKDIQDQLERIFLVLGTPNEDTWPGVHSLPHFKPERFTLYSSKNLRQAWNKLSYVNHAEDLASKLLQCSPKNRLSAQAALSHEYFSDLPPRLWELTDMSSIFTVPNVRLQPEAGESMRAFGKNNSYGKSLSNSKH
T25 sequence (Q86YV6 whole entry): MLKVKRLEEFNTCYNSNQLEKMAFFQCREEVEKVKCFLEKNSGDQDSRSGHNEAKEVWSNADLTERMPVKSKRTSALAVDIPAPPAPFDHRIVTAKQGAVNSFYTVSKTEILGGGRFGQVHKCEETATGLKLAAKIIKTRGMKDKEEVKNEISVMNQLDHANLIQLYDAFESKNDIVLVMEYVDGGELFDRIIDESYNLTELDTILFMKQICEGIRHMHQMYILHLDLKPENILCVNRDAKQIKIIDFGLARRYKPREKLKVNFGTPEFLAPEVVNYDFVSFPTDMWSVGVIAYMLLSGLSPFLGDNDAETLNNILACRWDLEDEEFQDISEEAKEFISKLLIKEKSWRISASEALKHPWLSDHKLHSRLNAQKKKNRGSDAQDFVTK
T14 sequence (O75460 19-977): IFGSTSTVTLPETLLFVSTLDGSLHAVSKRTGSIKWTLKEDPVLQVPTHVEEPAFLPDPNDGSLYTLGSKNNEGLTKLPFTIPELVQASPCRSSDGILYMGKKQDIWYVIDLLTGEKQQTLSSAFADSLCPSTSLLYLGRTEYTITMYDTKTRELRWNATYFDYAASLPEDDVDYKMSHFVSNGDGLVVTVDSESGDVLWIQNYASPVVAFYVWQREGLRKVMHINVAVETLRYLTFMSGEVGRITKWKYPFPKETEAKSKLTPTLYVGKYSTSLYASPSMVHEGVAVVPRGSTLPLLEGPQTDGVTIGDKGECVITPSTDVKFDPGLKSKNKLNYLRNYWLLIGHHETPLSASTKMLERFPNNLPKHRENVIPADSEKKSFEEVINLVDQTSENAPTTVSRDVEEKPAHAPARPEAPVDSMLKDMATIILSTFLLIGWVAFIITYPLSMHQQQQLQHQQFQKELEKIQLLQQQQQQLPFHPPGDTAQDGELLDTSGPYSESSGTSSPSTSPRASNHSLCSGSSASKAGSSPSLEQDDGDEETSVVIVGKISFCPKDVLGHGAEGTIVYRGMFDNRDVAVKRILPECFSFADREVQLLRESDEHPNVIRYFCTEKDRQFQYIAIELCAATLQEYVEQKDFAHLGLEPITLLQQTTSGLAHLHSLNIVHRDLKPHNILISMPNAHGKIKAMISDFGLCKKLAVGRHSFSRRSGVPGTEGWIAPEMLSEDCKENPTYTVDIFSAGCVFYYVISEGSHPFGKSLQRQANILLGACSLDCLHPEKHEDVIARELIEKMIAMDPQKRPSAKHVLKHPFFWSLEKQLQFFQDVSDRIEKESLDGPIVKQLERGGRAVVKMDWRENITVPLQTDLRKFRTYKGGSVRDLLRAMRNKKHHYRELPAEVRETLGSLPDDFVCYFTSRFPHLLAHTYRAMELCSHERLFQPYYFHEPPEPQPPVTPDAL

In the case of Cc1cccc(-c2cnc3occ(-c4ccc(C(=O)O)c(C5CCCC5)c4)c3c2)c1 [SGC-CAMKK2-1 (YL-36)], the remaining binding at 1 µM (EPHB6) is reported as 43%, the remaining binding at 1 µM (CAMK1G) is reported as 54% and the remaining binding at 1 µM (SGK2) is reported as 78%. The remaining binding at 1 µM (CDC2L2) was 84%, the remaining binding at 1 µM (OSR1) was 84% and the remaining binding at 1 µM (MEK3) was 91%. For the same molecule, the remaining binding at 1 µM (AMPK-alpha1) was 95%, the remaining binding at 1 µM (RET) was 98% and the remaining binding at 1 µM (LIMK1) was 99%. The remaining binding at 1 µM (PKMYT1) was 99%, the remaining binding at 1 µM [1] was 100% and the remaining binding at 1 µM (ADCK3) was 100%. For the same molecule, the remaining binding at 1 µM (CLK4) was 100%, the remaining binding at 1 µM (ERN1) was 100% and the remaining binding at 1 µM (LOK) was 100%. It also gave a remaining binding at 1 µM (MAPKAPK2) of 100%, a remaining binding at 1 µM (MLK2) of 100% and a remaining binding at 1 µM (PIK3CA(M1043I)) of 100%. For the same molecule, the remaining binding at 1 µM (PKN2) was 100% and the remaining binding at 1 µM (YES) was 100%.

In the case of O=C(O)c1ccc(-c2coc3ncc(-c4ccccc4)cc23)cc1Cl [SGC-CAMKK2-1N (UNC-YL-83)], the remaining binding at 1 µM (FGFR3(G697C)) is reported as 65%, the remaining binding at 1 µM [2] is reported as 70% and the remaining binding at 1 µM (FLT3(D835H)) is reported as 88%. The remaining binding at 1 µM (CDK2) was 91%, the remaining binding at 1 µM (MYLK4) was 91% and the remaining binding at 1 µM (PYK2) was 96%. It also gave a remaining binding at 1 µM (RET(M918T)) of 99%, a remaining binding at 1 µM (CDKL5) of 100% and a remaining binding at 1 µM (CSNK1G2) of 100%. The remaining binding at 1 µM (HASPIN) was 100%, the remaining binding at 1 µM (PFTK1) was 100% and the remaining binding at 1 µM (PIK3C2G) was 100%.
